In PMC13426457, “Cryo-EM structures of apo, agonist- and antagonist-bound heteromeric kainate receptors” (Science Advances, 2026):

Biological target: T1, GluK2 (Rattus norvegicus, UniProt P42260, A518T/I567V/C576V/C595S)
T1 construct: gene Grik2
T1 sequence (P42260 32-908 A518T/I567V/C576V/C595S): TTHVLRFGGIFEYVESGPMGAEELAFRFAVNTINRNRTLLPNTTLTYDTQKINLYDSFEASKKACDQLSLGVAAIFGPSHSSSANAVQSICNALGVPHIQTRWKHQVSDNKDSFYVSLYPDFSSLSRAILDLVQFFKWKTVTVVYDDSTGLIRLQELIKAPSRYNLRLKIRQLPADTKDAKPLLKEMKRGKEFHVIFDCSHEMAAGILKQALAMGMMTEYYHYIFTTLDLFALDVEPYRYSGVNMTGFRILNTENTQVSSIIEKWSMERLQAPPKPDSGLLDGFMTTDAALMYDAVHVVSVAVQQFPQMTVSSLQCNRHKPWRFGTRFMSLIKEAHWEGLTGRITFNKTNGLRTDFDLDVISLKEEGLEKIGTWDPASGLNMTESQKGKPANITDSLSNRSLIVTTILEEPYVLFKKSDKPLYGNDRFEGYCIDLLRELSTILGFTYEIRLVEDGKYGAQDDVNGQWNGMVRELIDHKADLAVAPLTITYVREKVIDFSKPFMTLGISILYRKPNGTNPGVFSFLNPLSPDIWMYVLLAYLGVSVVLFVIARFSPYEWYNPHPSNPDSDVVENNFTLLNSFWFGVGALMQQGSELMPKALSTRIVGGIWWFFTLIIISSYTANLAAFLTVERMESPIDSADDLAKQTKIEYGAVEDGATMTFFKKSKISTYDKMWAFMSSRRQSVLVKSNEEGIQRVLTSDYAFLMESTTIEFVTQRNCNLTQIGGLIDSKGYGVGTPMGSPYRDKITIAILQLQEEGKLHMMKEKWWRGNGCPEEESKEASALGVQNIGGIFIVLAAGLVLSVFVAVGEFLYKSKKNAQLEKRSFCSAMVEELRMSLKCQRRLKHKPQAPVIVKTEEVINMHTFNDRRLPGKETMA
T1 sequence (Q63273 with tags, fused parts or gaps T501A/C559V/C578S/C619I/C813A partner): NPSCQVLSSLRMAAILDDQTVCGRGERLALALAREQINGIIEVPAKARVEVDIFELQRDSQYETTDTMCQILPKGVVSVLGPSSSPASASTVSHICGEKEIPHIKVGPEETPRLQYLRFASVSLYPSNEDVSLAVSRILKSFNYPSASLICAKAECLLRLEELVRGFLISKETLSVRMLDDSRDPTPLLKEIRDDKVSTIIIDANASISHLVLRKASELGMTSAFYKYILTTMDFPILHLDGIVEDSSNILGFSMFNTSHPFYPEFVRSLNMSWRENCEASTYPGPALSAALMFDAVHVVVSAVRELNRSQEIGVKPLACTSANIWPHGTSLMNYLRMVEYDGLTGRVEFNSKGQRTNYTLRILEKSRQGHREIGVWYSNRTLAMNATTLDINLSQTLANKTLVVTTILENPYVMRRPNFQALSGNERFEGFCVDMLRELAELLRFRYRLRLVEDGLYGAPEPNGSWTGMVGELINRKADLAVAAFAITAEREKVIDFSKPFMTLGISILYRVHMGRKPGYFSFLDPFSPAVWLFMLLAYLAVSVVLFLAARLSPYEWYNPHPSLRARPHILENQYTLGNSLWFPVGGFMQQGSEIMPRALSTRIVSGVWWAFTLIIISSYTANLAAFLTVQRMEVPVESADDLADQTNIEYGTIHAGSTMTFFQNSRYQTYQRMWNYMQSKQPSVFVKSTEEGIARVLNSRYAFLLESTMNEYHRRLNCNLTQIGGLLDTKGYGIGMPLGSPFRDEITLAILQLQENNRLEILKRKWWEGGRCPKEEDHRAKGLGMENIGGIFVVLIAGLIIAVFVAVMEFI

## Cc1cn(C[C@H](N)C(=O)O)c(=O)n(Cc2ccsc2C(=O)O)c1=O [UBP310, (S)-1-(2-amino-2-carboxyethyl)-3-(2-carboxythiophene-3-yl-methyl)-5-methylpyrimidine-2,4-dione]
  % current reduction at 0.5 mM: 56.2 ± 21.0 % current reduction at 0.5 mM
